Patent US20110089073A1, “Methods And Compositions For Hydrophobic Modification Of Oral Cavity Surfaces” (The Procter & Gamble Company, priority 2009, published 2011)

Assays:
[1] = In vitro erosion cycling protocol (citric acid challenge, TMR); design: species or system human; details: teeth treated with compositions containing the organophosphate
[2] = Water contact angle method on treated enamel chips; design: species or system bovine
Method: A water contact angle method is used to determine the degree of hydrophobicity imparted by the present compositions to tooth surfaces. […] The method uses polished bovine enamel chips that are cleaned using a prophy paste followed by an acetone wipe and water rinse in a sonicator. Chips are then allowed to air dry for 60-90 minutes, and then baseline water contact angles are measured using prop Shape Analysis System DSA 10-MK2 from KRUSS. Chips with baseline water contact angle of about 48.00±5.00 are selected and randomized into groups of three per treatment. Following randomization each group of three chips are treated with a solution or dentifrice slurry (1:3 ratio) containing the test ingredient followed by a water rinse. The chips are then soaked in human saliva for an hour at 37° C. After the saliva soak, the chips are removed, rinsed with water and air dried. Contact angle reading is taken after at least 2 hours of drying. Water or regular toothpaste (without organophosphate) are used as controls. […] An increase in contact angle (post-treatment value—baseline) represents increased hydrophobic character of the surface; a decrease represents increased hydrophilic character of the surface.

[3] = Dissolution of pretreated hydroxy apatite powder in acetate buffer pH 4.5
Method: In this protocol, HAP powder is pretreated with dentifrice slurry supernatant (20 g supernate/200 mg HAP powder) followed by three times washing with water. After the last wash, 2 ml of water is added and vortexed to form a uniform slurry. In a separate beaker, 25 ml of 0.1M acetate buffer is prepared and pH adjusted to 4.5. To this buffer solution having initial pH of 4.5, a sample of 0.5 ml of pre-treated HAP slurry is added and dissolution profile of the pretreated HAP powder is monitored via changes in pH of the acetate buffer solution. The pH change is measured and recorded using a Brinkman Titrino titrator device for 30 minutes. With HAP dissolution, pH increases and the pH change is compared to that of a plain water treated HAP as control and is used to calculate percent inhibition of HAP mineral loss.

[4] = Table 1, change from baseline after treatment, 1 h saliva soak, concentrations as in label
[5] = Table 1, vs water treated HAP, concentrations as in label
[6] = Table 3, with or without water soluble hydrophilic compound

| Compound | Tooth mineral surface loss from acid exposure [1] | Δ Water Contact Angle [2, 4] | % Inhibition of HAP Surface Loss [3, 5] [%] | also measured |
| --- | --- | --- | --- | --- |
| CCCCCCCCCCCCOP(=O)([O-])[O-].[Na+].[Na+] [Sodium dodecyl phosphate] | significantly less tooth mineral surface loss |  |  |  |
| CCCCCCCCCCCCOS(=O)(=O)[O-].[Na+] [1% SLS, sodium lauryl sulfate, reference compound] |  | 0.23 |  |  |
| Potassium Laureth-3 Phosphate [1% Potassium Laureth-3 Phosphate] |  | 23.2 | 94.8 |  |
| Potassium Laureth Phosphate [1% Potassium Laureth Phosphate] |  | 45.43 | 89.7 |  |
| Sodium Dodeceth-9 Phosphate [1% Sodium Dodeceth-9 Phosphate] | significantly less tooth mineral surface loss | 16.43 | 45.24 |  |
| Sodium Dodeceth-1 Phosphate [1% Sodium Dodeceth-1 Phosphate] | significantly less tooth mineral surface loss | 32.13 | 94.5 | % Inhibition of HAP Surface Loss ([3]; Table 2, concentration 0.25%): 58.56%; % Inhibition of HAP Surface Loss ([3]; Table 2, concentration 0.5%): 75.69%; % Inhibition of HAP Surface Loss ([3]; Table 2, concentration 1.0%): 92.03%; % Inhibition of HAP Surface Loss ([3]; Table 2, concentration 2.0%): 92.83%; % Inhibition of HAP Surface Loss [3, 6]: 94.49%; Δ Water Contact Angle ([2]; Table 2, concentration 0.25%): 19.07; Δ Water Contact Angle ([2]; Table 2, concentration 0.5%): 26.57; Δ Water Contact Angle ([2]; Table 2, concentration 1.0%): 43.77; Δ Water Contact Angle ([2]; Table 2, concentration 2.0%): 61.40; Δ Water Contact Angle [2, 6]: 32.13 |
